Assay results taken from patent publication US20120029187A1, “HALOALKYLSULFONANILIDE DERIVATIVE” (Nissan Chemical Industries, Ltd., priority 2009, published 2012).

Legend:
Assay type in all cases: in vivo
[1] = system: redroot pigweed; assay: Test Example 4: herbicidal effect in foliage treatment; settings: dose 3.2 g/a, three weeks after the application
Outline: (§1)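 Sowing in sterilized diluvial soil, ~1.5 cm cover; growth 14 d, 25–30° C greenhouse; foliar spray of water-diluted EC at predetermined g/a; scoring 3 wk later on graded scale.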

[2] = system: giant foxtail; assay: as above; settings: dose 3.2 g/a, three weeks after the application
Outline: as §1

[3] = system: common lambsquater; assay: as above; settings: dose 3.2 g/a, three weeks after the application
Outline: as §1

[4] = system: water foxtail; assay: as above; settings: dose 3.2 g/a, three weeks after the application
Outline: as §1

[5] = system: common chickweed; assay: as above; settings: dose 3.2 g/a, three weeks after the application
Outline: as §1

[6] = system: posumbu knotweed; assay: as above; settings: dose 3.2 g/a, three weeks after the application
Outline: as §1

[7] = system: wild oat; assay: as above; settings: dose 3.2 g/a, three weeks after the application
Outline: as §1

[8] = system: velvetleaf; assay: as above; settings: dose 3.2 g/a, three weeks after the application
Outline: as §1

[9] = system: barnyardgrass; assay: as above; settings: dose 3.2 g/a, three weeks after the application
Outline: as §1

[10] = system: Italian ryegrass; assay: as above; settings: dose 3.2 g/a, three weeks after the application
Outline: as §1

[11] = system: large crabgrass; assay: as above; settings: dose 3.2 g/a, three weeks after the application
Outline: as §1

[12] = system: common ragweed; assay: as above; settings: dose 3.2 g/a, three weeks after the application
Outline: as §1

[13] = system: transplanted rice; assay: Test Example 1: preemergence treatment under submerged conditions, effect on crop; settings: dose 2.52 g/a
Outline: (§2)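 Score 0–5 by mortality (5: ≥90%; 0: <5%), read 3 weeks post-application. Paddy-type cups: alluvial soil under 4 cm water, weeds seeded plus transplanted 2.5-leaf rice; diluted EC dosed onto water surface same day as sowing, g/a basis; greenhouse 25 to 30° C.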

[14] = system: ducksalad; assay: Test Example 2: herbicidal effects during the vegetation period under submerged conditions; settings: treatment during the vegetation period under submerged conditions; dose 2.52 g/a
Outline: (§3)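 Barnyardgrass, bulrush and ducksalad were co-sown in alluvial soil flooded to 4 cm and grown in a greenhouse at 25 to 30° C. At the 1- or 2-leaf stage, water-diluted emulsifiable concentrates went onto the water surface at set doses (g/a). Herbicidal effect was scored three weeks later on a graded scale.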

[15] = system: bulrush; assay: as above; settings: treatment during the vegetation period under submerged conditions; dose 2.52 g/a
Outline: as §3

[16] = system: barnyardgrass; assay: as above; settings: treatment during the vegetation period under submerged conditions; dose 2.52 g/a
Outline: as §3

[17] = system: ducksalad; assay: Test Example 1: herbicidal effects in preemergence treatment under submerged conditions; settings: dose 2.52 g/a
Outline: as §2

[18] = system: bulrush; assay: as above; settings: dose 2.52 g/a
Outline: as §2

[19] = system: barnyardgrass; assay: as above; settings: dose 2.52 g/a
Outline: as §2

[20] = system: beadstraw; assay: Test Example 3: herbicidal effects in soil treatment; settings: dose 3.2 g/a
Outline: (§4)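 Seeds were sown in sterilized diluvial soil and covered with about 1.5 cm of soil. Compounds, formulated as emulsifiable concentrates and diluted with water, were sprayed evenly over the soil surface at set doses in g/a. Herbicidal effect was scored on a rating scale three weeks later.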

[21] = system: redroot pigweed; assay: as above; settings: dose 3.2 g/a
Outline: as §4

[22] = system: giant foxtail; assay: as above; settings: dose 3.2 g/a
Outline: as §4

[23] = system: common lambsquater; assay: as above; settings: dose 3.2 g/a
Outline: as §4

[24] = system: water foxtail; assay: as above; settings: dose 3.2 g/a
Outline: as §4

[25] = system: common chickweed; assay: as above; settings: dose 3.2 g/a
Outline: as §4

[26] = system: barnyardgrass; assay: as above; settings: dose 3.2 g/a
Outline: as §4

[27] = system: Italian ryegrass; assay: as above; settings: dose 3.2 g/a
Outline: as §4

[28] = system: large crabgrass; assay: as above; settings: dose 3.2 g/a
Outline: as §4

[29] = system: common ragweed; assay: as above; settings: dose 3.2 g/a
Outline: as §4

[30] = system: wild oat; assay: as above; settings: dose 3.2 g/a
Outline: as §4

[31] = system: velvetleaf; assay: as above; settings: dose 3.2 g/a
Outline: as §4

[32] = system: beadstraw; assay: Test Example 4: herbicidal effect in foliage treatment; settings: dose 3.2 g/a, three weeks after the application
Outline: as §1

[33] = system: posumbu knotweed; assay: Test Example 3: herbicidal effects in soil treatment; settings: dose 3.2 g/a
Outline: as §4

| SMILES | K: redroot pigweed, herbicidal effect [1] | E: giant foxtail, herbicidal effect [2] | L: common lambsquater, herbicidal effect [3] | G: water foxtail, herbicidal effect [4] | N: common chickweed, herbicidal effect [5] | M: posumbu knotweed, herbicidal effect [6] | I: velvetleaf, herbicidal effect [8] | A: barnyardgrass, herbicidal effect [9] | H: Italian ryegrass, herbicidal effect [10] | D: large crabgrass, herbicidal effect [11] | J: common ragweed, herbicidal effect [12] | a: transplanted rice, effect on crop (evaluation scale 0-5) [13] | C: ducksalad, herbicidal effect (evaluation scale 0-5) [14] | B: bulrush, herbicidal effect (evaluation scale 0-5) [15] | A: barnyardgrass, herbicidal effect (evaluation scale 0-5) [16] | C: ducksalad, herbicidal effect (evaluation scale 0-5) [17] | B: bulrush, herbicidal effect (evaluation scale 0-5) [18] | A: barnyardgrass, herbicidal effect (evaluation scale 0-5) [19] | herbicidal effect, O: beadstraw [20] | herbicidal effect, K: redroot pigweed [21] | other results |
| --- | --- | --- | --- | --- | --- | --- | --- | --- | --- | --- | --- | --- | --- | --- | --- | --- | --- | --- | --- | --- | --- |
| CC1OC(C)(C)CC(=O)N1Cc1ccccc1NS(=O)(=O)C(F)(F)F (stereo not drawn) [II-72] | 2 (mortality of at least 20% and less than 40%) | 4 (mortality of at least 70% and less than 90%) | 1 (mortality of at least 5% and less than 20%) | 5 (mortality of 90% or above (nearly complete death)) | 3 (mortality of at least 40% and less than 70%) | 3 (mortality of at least 40% and less than 70%) | 5 (mortality of 90% or above (nearly complete death)) | 4 (mortality of at least 70% and less than 90%) | 5 (mortality of 90% or above (nearly complete death)) | 4 (mortality of at least 70% and less than 90%) | 3 (mortality of at least 40% and less than 70%) | 3 (mortality of at least 40% and less than 70%) | 5 (mortality of 90% or above (nearly complete death)) | 5 (mortality of 90% or above (nearly complete death)) | 5 (mortality of 90% or above (nearly complete death)) | 5 (mortality of 90% or above (nearly complete death)) | 5 (mortality of 90% or above (nearly complete death)) | 5 (mortality of 90% or above (nearly complete death)) |  |  | F: wild oat, herbicidal effect [7]: 1 (mortality of at least 5% and less than 20%); O: beadstraw, herbicidal effect (evaluation scale 0-5) [20]: 4 (mortality of at least 70% and less than 90%); K: redroot pigweed, herbicidal effect (evaluation scale 0-5) [21]: 3 (mortality of at least 40% and less than 70%); E: giant foxtail, herbicidal effect (evaluation scale 0-5) [22]: 5 (mortality of 90% or above (nearly complete death)); L: common lambsquater, herbicidal effect (evaluation scale 0-5) [23]: 0 (mortality of less than 5% (almost ineffective)); G: water foxtail, herbicidal effect (evaluation scale 0-5) [24]: 5 (mortality of 90% or above (nearly complete death)); N: common chickweed, herbicidal effect (evaluation scale 0-5) [25]: 4 (mortality of at least 70% and less than 90%); A: barnyardgrass, herbicidal effect (evaluation scale 0-5) [26]: 5 (mortality of 90% or above (nearly complete death)); H: Italian ryegrass, herbicidal effect (evaluation scale 0-5) [27]: 5 (mortality of 90% or above (nearly complete death)); D: large crabgrass, herbicidal effect (evaluation scale 0-5) [28]: 5 (mortality of 90% or above (nearly complete death)); J: common ragweed, herbicidal effect (evaluation scale 0-5) [29]: 4 (mortality of at least 70% and less than 90%) |
| CCOC(=O)N(c1ccccc1CN1C(=O)C(Br)C(C)(C)OC1C)S(=O)(=O)C(F)(F)F (stereo not drawn) [II-76] |  |  |  |  |  |  |  |  |  |  |  |  |  |  |  |  |  |  | 5 (mortality of 90% or above (nearly complete death)) | 3 (mortality of at least 40% and less than 70%) | herbicidal effect, E: giant foxtail [22]: 0 (mortality of less than 5% (almost ineffective)); herbicidal effect, L: common lambsquater [23]: 3 (mortality of at least 40% and less than 70%); herbicidal effect, G: water foxtail [24]: 5 (mortality of 90% or above (nearly complete death)); herbicidal effect, N: common chickweed [25]: 3 (mortality of at least 40% and less than 70%); herbicidal effect, F: wild oat [30]: 0 (mortality of less than 5% (almost ineffective)); herbicidal effect, I: velvetleaf [31]: 3 (mortality of at least 40% and less than 70%); herbicidal effect, A: barnyardgrass [26]: 3 (mortality of at least 40% and less than 70%); herbicidal effect, H: Italian ryegrass [27]: 0 (mortality of less than 5% (almost ineffective)); herbicidal effect, D: large crabgrass [28]: 3 (mortality of at least 40% and less than 70%); herbicidal effect, J: common ragweed [29]: 0 (mortality of less than 5% (almost ineffective)) |
| CCOC(=O)N(c1ccccc1CN1OCC(CC)OC1=O)S(=O)(=O)C(F)(F)F (stereo not drawn) [III-6] | 4 (mortality of at least 70% and less than 90%) | 5 (mortality of 90% or above (nearly complete death)) | 3 (mortality of at least 40% and less than 70%) | 5 (mortality of 90% or above (nearly complete death)) | 4 (mortality of at least 70% and less than 90%) | 5 (mortality of 90% or above (nearly complete death)) | 3 (mortality of at least 40% and less than 70%) | 5 (mortality of 90% or above (nearly complete death)) | 2 (mortality of at least 20% and less than 40%) | 3 (mortality of at least 40% and less than 70%) | 4 (mortality of at least 70% and less than 90%) | 0 (mortality of less than 5% (almost ineffective)) | 5 (mortality of 90% or above (nearly complete death)) | 5 (mortality of 90% or above (nearly complete death)) | 5 (mortality of 90% or above (nearly complete death)) | 5 (mortality of 90% or above (nearly complete death)) | 5 (mortality of 90% or above (nearly complete death)) | 5 (mortality of 90% or above (nearly complete death)) | 4 (mortality of at least 70% and less than 90%) | 3 (mortality of at least 40% and less than 70%) | O: beadstraw, herbicidal effect [32]: 3 (mortality of at least 40% and less than 70%); herbicidal effect, E: giant foxtail [22]: 4 (mortality of at least 70% and less than 90%); herbicidal effect, L: common lambsquater [23]: 4 (mortality of at least 70% and less than 90%); herbicidal effect, G: water foxtail [24]: 5 (mortality of 90% or above (nearly complete death)); herbicidal effect, N: common chickweed [25]: 5 (mortality of 90% or above (nearly complete death)); herbicidal effect, M: posumbu knotweed [33]: 5 (mortality of 90% or above (nearly complete death)); herbicidal effect, I: velvetleaf [31]: 5 (mortality of 90% or above (nearly complete death)); herbicidal effect, A: barnyardgrass [26]: 5 (mortality of 90% or above (nearly complete death)); herbicidal effect, H: Italian ryegrass [27]: 5 (mortality of 90% or above (nearly complete death)); herbicidal effect, D: large crabgrass [28]: 5 (mortality of 90% or above (nearly complete death)); herbicidal effect, J: common ragweed [29]: 4 (mortality of at least 70% and less than 90%) |
